Measurements published in PMC12797171, “Preclinical Evaluation of a ^177Lu-Labeled Gastrin-Releasing Peptide Receptor Antagonist and Prostate Cancer Treatment with Monotherapy and in Combination with Everolimus” (ACS Pharmacology & Translational Science, 2025).
Where “and” joins values, the source holds several entries; their conditions need not be identical. Equal entries are not always repeated.

Experiments:
PC-3 tumors = assay: In vivo combination therapy with everolimus in PC-3 tumor bearing mice; set-up: species or system mouse; conditions: for Tumor volume, average: 5mg/kg (x3)
Excerpt: Treatment began once tumors reached the same size threshold used in the monotherapy studies. Animals were divided into three groups (n = 4–5 per group) and received one of the following regimens: • 1.
Monitoring procedures matched those used in the monotherapy experiments.
The procedure is detailed in the supplementary material.
initiation of therapy in the combination treatment studies. Three groups of 5 mice per group were
Both monotherapy and combination

[1] = Morphological assessment / tolerability (H&E of kidney, pancreas, tumor)
Procedure: Selected mouse organs (kidney, pancreas and tumor) were dissected from the sacrificed animals and immediately frozen using liquid nitrogen. Frozen tissue samples were sectioned of 7 μm thickness using a cryostat maintained at – 20 °C to – 25 °C and mounted onto microscope glass slides followed by staining with hematoxylin and eosin for microscopic examination using standard protocols (details in Supporting Information).
Frozen tissue samples (kidney, pancreas and tumor) were sectioned at 7 µm thickness using a cryostat
maintained at −20°C to −25°C and mounted onto microscope glass slides. Sections were air-dried at
room temperature for 15 minutes and subsequently fixed in 4% paraformaldehyde for 10 minutes. After
rinsing in phosphate-buffered saline, slides were stained with hematoxylin for 5 minutes, rinsed in
running tap water and differentiated in 1% acid alcohol followed by bluing in ammonia water. Sections
were then counterstained with eosin for 1 minute and briefly washed in 70% ethanol to remove excess
stain. Slides were dehydrated through graded ethanol (70%, 95%, 100%) and mounted with a permanent
mounting medium. Stained sections were examined using a light microscope.

With CO[C@H]1C[C@@H]2CC[C@@H](C)[C@@](O)(O2)C(=O)C(=O)N2CCCC[C@H]2C(=O)O[C@H]([C@H](C)C[C@@H]2CC[C@@H](OCCO)[C@H](OC)C2)CC(=O)[C@H](C)/C=C(\C)[C@@H](O)[C@@H](OC)C(=O)[C@H](C)C[C@H](C)/C=C/C=C/C=C/1C [Everolimus, everolimus] the Median survival (PC-3 tumors; 5 mg/kg/day for 3 days i.p.) was 27.5 days and ~27 days, the “Tumor volume, average” value (PC-3 tumors; day 0) was 100.06 mm3 and the “Tumor volume, average” value (PC-3 tumors; day 2) was 108.59 mm3. For the same molecule, the “Tumor volume, average” value (PC-3 tumors; day 4) was 107.95 mm3, the “Tumor volume, average” value (PC-3 tumors; day 6) was 97.61 mm3 and the “Tumor volume, average” value (PC-3 tumors; day 8) was 97.18 mm3. The “Tumor volume, average” value (PC-3 tumors; day 10) was 104.48 mm3, the “Tumor volume, average” value (PC-3 tumors; day 12) was 131.10 mm3 and the “Tumor volume, average” value (PC-3 tumors; day 14) was 181.07 mm3. The “Tumor volume, average” value (PC-3 tumors; day 16) was 193.30 mm3, the “Tumor volume, average” value (PC-3 tumors; day 18) was 241.75 mm3 and the “Tumor volume, average” value (PC-3 tumors; day 20) was 376.61 mm3. For the same molecule, the “Tumor volume, average” value (PC-3 tumors; day 22) was 630.33 mm3, the “Tumor volume, average” value (PC-3 tumors; day 24) was 524.51 mm3 and the “Tumor volume, average” value (PC-3 tumors; day 27) was 794.32 mm3. The “Tumor volume, average” value (PC-3 tumors; day 29) was 970.40 mm3, the “effect on tumor growth” value (PC-3 tumors; everolimus alone, 5 mg/kg/day for 3 days) was “moderately delayed tumor growth but did not stop it” and the “Pancreas, microscopic tissue examination” value ([1]; 5mg/kg (x3)) was “No obvious lesions”. For the same molecule, the tolerability ([1]; three doses, physical condition and weight) was “no observable side effects”.
